Reference: patent publication US20230233144A1, “Method for Determining Medication Adherence and Taggants Therefo” (The Regents of the University of Colorado, A Body Corporate, priority 2021, published 2023)
Where two headings read alike, the source gives them in different places.

Tests used:
[1] = ATP half-life corresponding value in humans; conditions: human, in vivo, corresponding to the rat value
Source text: The in vivo ATP pool is large, the half-life of ATP is relatively long, 3 days in rats, corresponding to about 10 days in humans. […] Given the long half-life of ATP, the measurement for gradients of adherence is analogous to hemoglobin A1C as a measure of gradients of glucose exposure over the preceding months.

[2] = Daily 5+ ATP to rats for six days, 5+ ATP/1+ ATP ratio in dried blood spots by mass spectrometry; conditions: rat, red blood cells in dried blood spots, 100 mcg, in vivo ATP pool
Source text: Once each day, blood spot samples were taken from each rat and dried.
The in vivo ATP pool is large, the half-life of ATP is relatively long, 3 days in rats, corresponding to about 10 days in humans.

[3] = in vivo
Source text: Example 2: An assay for a tenofovir (a PrEP drug) anabolite, tenofovir-diphosphate in red blood cells, which may be collected in dried blood spots (DBS), is disclosed as an adherence assessment. […] This enables assessment of cumulative dosing, indicative of degrees or gradients of adherence, over the preceding 1-2 months for tenofovir-based PrEP. This is analogous to how hemoglobin A1C works for cumulative glucose exposure. […] FIG. 3 illustrates how taggant tenofovir diphosphate concentration in dried blood spots is used in clinical trials to correlate and interpret medication adherence based upon TFV-DP concentration in DBS.

| Compound | half-life [1] | half-life [2] | half-life ([3]; human) | accumulation from a single dose to steady-state [3] | time of build up in DBS until steady-state plateau [3] |
| --- | --- | --- | --- | --- | --- |
| Nc1ncnc2c1ncn2[C@@H]1O[C@H](COP(=O)(O)OP(=O)(O)OP(=O)(O)O)[C@@H](O)[C@H]1O [ATP, adenosine triphosphate] | ~240 h | 72 h |  |  |  |
| CC(Cn1cnc2c(N)ncnc21)OCP(=O)(O)OP(=O)(O)OP(=O)(O)O (stereo in doubt) [TFV-DP, tenofovir-diphosphate] |  |  | 408 h | 25 fold | approximately 60 days |
